Test results from PMC3139892, “Effective Control of Postprandial Glucose Level through Inhibition of Intestinal Alpha Glucosidase by Cymbopogon martinii (Roxb.)” (Evidence-based Complementary and Alternative Medicine : eCAM, 2011).

Target: T1, intestinal alpha glucosidase (maltase activity)
T1 construct: gene Mgam; mixture of intestinal alpha-glucosidases
Assay: maltose hydrolysis, glucose by glucose oxidase (GOD-PAP)
Type: biochemical, Rattus norvegicus
Details: 25 mM maltose, 100 mM phosphate pH 7.2, 37°C, 30 min; mucosal enzyme preparation
Excerpt: maltose hydrolysis, glucose by glucose oxidase (GOD-PAP) on intestinal alpha glucosidase (maltase activity)

With `C[C@H]1O[C@H](O[C@H]2[C@H](O)[C@@H](O)[C@@H](O[C@H]3[C@H](O)[C@@H](O)C(O)O[C@@H]3CO)O[C@@H]2CO)[C@H](O)[C@@H](O)[C@@H]1N[C@H]1C=C(CO)[C@@H](O)[C@H](O)[C@H]1O` (stereo partly shown) [acarbose] the “Acarbose / IC50” value was 60 µg/mL.
